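A five-concentration, 48-hour dose response in 96-well plates underlies each endpoint, interpolated linearly between surrounding concentrations. Abbreviation: GI50, concentration required for 50% inhibition of growth. At the TGI there is no net growth.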
What was measured:
Assay in all cases: NCI tumour cell line growth inhibition, 48 h
786-0 renal = system: 786-0 renal
A498 renal = system: A498 renal
A549 NSCLC = system: A549 NSCLC
ACHN renal = system: ACHN renal
BT-549 breast = system: BT-549 breast
CAKI-1 renal = system: CAKI-1 renal
CCRF-CEM leukemia = system: CCRF-CEM leukemia
COLO 205 colon = system: COLO 205 colon
DU-145 prostate = system: DU-145 prostate
EKVX NSCLC = system: EKVX NSCLC
HCC-2998 colon = system: HCC-2998 colon
HCT-116 colon = system: HCT-116 colon
HCT-15 colon = system: HCT-15 colon
HL-60(TB) leukemia = system: HL-60(TB) leukemia
HOP-62 NSCLC = system: HOP-62 NSCLC
HOP-92 NSCLC = system: HOP-92 NSCLC
HS 578T breast = system: HS 578T breast
HT29 colon = system: HT29 colon
IGROV1 ovarian = system: IGROV1 ovarian
K-562 leukemia = system: K-562 leukemia
KM12 colon = system: KM12 colon
LOX IMVI melanoma = system: LOX IMVI melanoma
M14 melanoma = system: M14 melanoma
MALME-3M melanoma = system: MALME-3M melanoma
MCF7 breast = system: MCF7 breast
MDA-MB-231 breast = system: MDA-MB-231 breast
MDA-MB-435 = system: MDA-MB-435
MOLT-4 leukemia = system: MOLT-4 leukemia
NCI-H226 lung = system: NCI-H226 lung
NCI-H23 lung = system: NCI-H23 lung
NCI-H460 lung = system: NCI-H460 lung
NCI-H522 lung = system: NCI-H522 lung
NCI/ADR-RES ovarian = system: NCI/ADR-RES ovarian
OVCAR-3 ovarian = system: OVCAR-3 ovarian
OVCAR-4 ovarian = system: OVCAR-4 ovarian
OVCAR-5 ovarian = system: OVCAR-5 ovarian
OVCAR-8 ovarian = system: OVCAR-8 ovarian
PC-3 prostate = system: PC-3 prostate
RPMI-8226 leukemia = system: RPMI-8226 leukemia
RXF 393 renal = system: RXF 393 renal
SF-268 CNS = system: SF-268 CNS
SF-295 CNS = system: SF-295 CNS
SF-539 CNS = system: SF-539 CNS
SK-MEL-2 melanoma = system: SK-MEL-2 melanoma
SK-MEL-28 melanoma = system: SK-MEL-28 melanoma
SK-MEL-5 melanoma = system: SK-MEL-5 melanoma
SK-OV-3 ovarian = system: SK-OV-3 ovarian
SN12C renal = system: SN12C renal
SNB-19 CNS = system: SNB-19 CNS
SNB-75 CNS = system: SNB-75 CNS
SR leukemia = system: SR leukemia
SW-620 colon = system: SW-620 colon
T-47D breast = system: T-47D breast
TK-10 renal = system: TK-10 renal
U251 CNS = system: U251 CNS
UACC-257 melanoma = system: UACC-257 melanoma
UACC-62 melanoma = system: UACC-62 melanoma
UO-31 renal = system: UO-31 renal
MDA-N = system: MDA-N

## COc1cc2cc(Oc3ccc(NC(=O)c4cccc5c4OCCO5)cc3)c(C)nc2cc1OC
786-0 renal
  GI50: 4.7 µM
  TGI: > 100 µM
A498 renal
  GI50: 2.06 µM
  TGI: 68.4 µM
A549 NSCLC
  GI50: 7.04 µM
  TGI: > 100 µM
ACHN renal
  GI50: 4.01 µM
  TGI: 27.3 µM
BT-549 breast
  GI50: 1.71 µM
  TGI: 4.42 µM
CAKI-1 renal
  GI50: 14.2 µM
  TGI: > 100 µM
CCRF-CEM leukemia
  GI50: 4.18 µM
  TGI: > 100 µM
COLO 205 colon
  GI50: 4.95 µM
  TGI: > 100 µM
DU-145 prostate
  GI50: 25.7 µM
  TGI: > 100 µM
EKVX NSCLC
  GI50: 5.32 µM
  TGI: > 100 µM
HCC-2998 colon
  GI50: 5.5 µM
  TGI: > 100 µM
HCT-116 colon
  GI50: 3.42 µM
  TGI: > 100 µM
HCT-15 colon
  GI50: 7.87 µM
  TGI: > 100 µM
HL-60(TB) leukemia
  GI50: 5.38 µM
  TGI: > 100 µM
HOP-62 NSCLC
  GI50: 9.13 µM
  TGI: 94.6 µM
HOP-92 NSCLC
  GI50: 3.93 µM
  TGI: 30.6 µM
HS 578T breast
  GI50: 5.64 µM
  TGI: > 100 µM
HT29 colon
  GI50: 6.12 µM
  TGI: > 100 µM
IGROV1 ovarian
  GI50: 64.5 µM
  TGI: > 100 µM
K-562 leukemia
  GI50: 4.81 µM
  TGI: > 100 µM
KM12 colon
  GI50: 4.39 µM
  TGI: > 100 µM
LOX IMVI melanoma
  GI50: 9.28 µM
  TGI: > 100 µM
M14 melanoma
  GI50: 4.9 µM
  TGI: > 100 µM
MALME-3M melanoma
  GI50: 8.76 µM
  TGI: > 100 µM
MCF7 breast
  GI50: 6.27 µM
  TGI: > 100 µM
MDA-MB-231 breast
  GI50: 6.06 µM
  TGI: > 100 µM
MDA-MB-435
  GI50: 7.05 µM
  TGI: > 100 µM
MOLT-4 leukemia
  GI50: 4.53 µM
  TGI: > 100 µM
NCI-H226 lung
  GI50: 3.21 µM
  TGI: 21.2 µM
NCI-H23 lung
  GI50: 8.14 µM
  TGI: > 100 µM
NCI-H460 lung
  GI50: 8.36 µM
  TGI: > 100 µM
NCI-H522 lung
  GI50: 4.28 µM
  TGI: 45.1 µM
NCI/ADR-RES ovarian
  GI50: 3.42 µM
  TGI: > 100 µM
OVCAR-3 ovarian
  GI50: 17.1 µM
  TGI: > 100 µM
OVCAR-4 ovarian
  GI50: 3.32 µM
  TGI: 35 µM
OVCAR-5 ovarian
  GI50: 10.8 µM
  TGI: > 100 µM
OVCAR-8 ovarian
  GI50: 3.68 µM
  TGI: 29.8 µM
PC-3 prostate
  GI50: 2.49 µM
  TGI: 16.2 µM
RPMI-8226 leukemia
  GI50: 2.98 µM
  TGI: > 100 µM
RXF 393 renal
  GI50: 8.81 µM
  TGI: > 100 µM
SF-268 CNS
  GI50: 14.4 µM
  TGI: > 100 µM
SF-295 CNS
  GI50: 2.91 µM
  TGI: > 100 µM
SF-539 CNS
  GI50: 9.09 µM
  TGI: > 100 µM
SK-MEL-2 melanoma
  GI50: 32.9 µM
  TGI: > 100 µM
SK-MEL-28 melanoma
  GI50: 19.2 µM
  TGI: > 100 µM
SK-MEL-5 melanoma
  GI50: 2.92 µM
  TGI: > 100 µM
SK-OV-3 ovarian
  GI50: 49.8 µM
  TGI: > 100 µM
SN12C renal
  GI50: 8.4 µM
  TGI: > 100 µM
SNB-19 CNS
  GI50: 15.5 µM
  TGI: > 100 µM
SNB-75 CNS
  GI50: 4.06 µM
  TGI: 53.1 µM
SR leukemia
  GI50: 4.12 µM
  TGI: > 100 µM
SW-620 colon
  GI50: 49.9 µM
  TGI: > 100 µM
T-47D breast
  GI50: 2.82 µM
  TGI: 15.4 µM
TK-10 renal
  GI50: 15.7 µM
  TGI: > 100 µM
U251 CNS
  GI50: 5.03 µM
  TGI: > 100 µM
UACC-257 melanoma
  GI50: 4.79 µM
  TGI: 63.5 µM
UACC-62 melanoma
  GI50: 6.24 µM
  TGI: > 100 µM
UO-31 renal
  GI50: 4.17 µM
  TGI: > 100 µM

## N#CCCC1(CCC#N)CCCCCCC(CCC#N)(CCC#N)C(O)C1O (centres undefined)
786-0 renal
  TGI: > 100 µM
A498 renal
  TGI: > 100 µM
A549 NSCLC
  TGI: > 100 µM
ACHN renal
  TGI: > 100 µM
CAKI-1 renal
  TGI: > 100 µM
COLO 205 colon
  TGI: > 100 µM
DU-145 prostate
  TGI: > 100 µM
HCC-2998 colon
  TGI: > 100 µM
HCT-116 colon
  TGI: > 100 µM
HCT-15 colon
  TGI: > 100 µM
HOP-62 NSCLC
  TGI: > 100 µM
HOP-92 NSCLC
  TGI: > 100 µM
HT29 colon
  TGI: > 100 µM
IGROV1 ovarian
  TGI: > 100 µM
K-562 leukemia
  TGI: > 100 µM
KM12 colon
  TGI: > 100 µM
LOX IMVI melanoma
  TGI: > 100 µM
M14 melanoma
  TGI: > 100 µM
MALME-3M melanoma
  TGI: > 100 µM
MCF7 breast
  TGI: > 100 µM
MDA-MB-435
  TGI: > 100 µM
MDA-N
  TGI: > 100 µM
NCI-H226 lung
  TGI: > 100 µM
NCI-H23 lung
  TGI: > 100 µM
NCI-H460 lung
  TGI: > 100 µM
NCI-H522 lung
  TGI: > 100 µM
NCI/ADR-RES ovarian
  TGI: > 100 µM
OVCAR-3 ovarian
  TGI: > 100 µM
OVCAR-4 ovarian
  TGI: > 100 µM
OVCAR-5 ovarian
  TGI: > 100 µM
OVCAR-8 ovarian
  TGI: > 100 µM
PC-3 prostate
  TGI: > 100 µM
RXF 393 renal
  TGI: > 100 µM
SF-268 CNS
  TGI: > 100 µM
SF-295 CNS
  TGI: > 100 µM
SF-539 CNS
  TGI: > 100 µM
SK-MEL-2 melanoma
  TGI: > 100 µM
SK-MEL-28 melanoma
  TGI: > 100 µM
SK-MEL-5 melanoma
  TGI: > 100 µM
SK-OV-3 ovarian
  TGI: > 100 µM
SN12C renal
  TGI: > 100 µM
SNB-19 CNS
  TGI: > 100 µM
SNB-75 CNS
  TGI: > 100 µM
SR leukemia
  TGI: > 100 µM
SW-620 colon
  TGI: > 100 µM
T-47D breast
  TGI: > 100 µM
TK-10 renal
  TGI: > 100 µM
U251 CNS
  TGI: > 100 µM
UACC-257 melanoma
  TGI: > 100 µM
UO-31 renal
  TGI: > 100 µM

## CC(C)=CCC[C@@H](C)c1c2[nH]c3ccccc3sc-2c(C)c(=O)c1=O
786-0 renal
  TGI: 24.1 µM
A498 renal
  TGI: 35.5 µM
A549 NSCLC
  TGI: 35.6 µM
ACHN renal
  TGI: 10.8 µM
BT-549 breast
  TGI: > 75 µM
CAKI-1 renal
  TGI: 35.2 µM
CCRF-CEM leukemia
  TGI: > 42.4 µM
COLO 205 colon
  TGI: > 66.7 µM
DU-145 prostate
  TGI: > 75 µM
EKVX NSCLC
  TGI: > 75 µM
HCC-2998 colon
  TGI: > 36.8 µM
HCT-116 colon
  TGI: 21.8 µM
HCT-15 colon
  TGI: > 75 µM
HL-60(TB) leukemia
  TGI: 5.02 µM
HOP-62 NSCLC
  TGI: 24.9 µM
HOP-92 NSCLC
  TGI: > 75 µM
HS 578T breast
  TGI: > 48.9 µM
HT29 colon
  TGI: > 27.4 µM
IGROV1 ovarian
  TGI: 26.3 µM
K-562 leukemia
  TGI: > 75 µM
KM12 colon
  TGI: > 35.2 µM
LOX IMVI melanoma
  TGI: > 29 µM
M14 melanoma
  TGI: 48.5 µM
MALME-3M melanoma
  TGI: > 29.1 µM
MCF7 breast
  TGI: > 75 µM
MDA-MB-231 breast
  TGI: > 75 µM
MDA-MB-435
  TGI: > 75 µM
MOLT-4 leukemia
  TGI: > 75 µM
NCI-H226 lung
  TGI: 11.1 µM
NCI-H23 lung
  TGI: 41.9 µM
NCI-H460 lung
  TGI: > 27 µM
NCI-H522 lung
  TGI: 8.6 µM
NCI/ADR-RES ovarian
  TGI: 12.1 µM
OVCAR-3 ovarian
  TGI: > 45.1 µM
OVCAR-4 ovarian
  TGI: > 75 µM
OVCAR-5 ovarian
  TGI: > 75 µM
OVCAR-8 ovarian
  TGI: 13.8 µM
PC-3 prostate
  TGI: > 75 µM
RPMI-8226 leukemia
  TGI: 25 µM
RXF 393 renal
  TGI: 32.7 µM
SF-268 CNS
  TGI: > 35.3 µM
SF-295 CNS
  TGI: 40.6 µM
SF-539 CNS
  TGI: 16.3 µM
SK-MEL-2 melanoma
  TGI: 30.7 µM
SK-MEL-28 melanoma
  TGI: > 75 µM
SK-MEL-5 melanoma
  TGI: 19.7 µM
SK-OV-3 ovarian
  TGI: > 75 µM
SN12C renal
  TGI: 67.2 µM
SNB-19 CNS
  TGI: > 75 µM
SNB-75 CNS
  TGI: > 43.3 µM
SR leukemia
  TGI: > 61.6 µM
SW-620 colon
  TGI: > 75 µM
T-47D breast
  TGI: 23.1 µM
TK-10 renal
  TGI: > 75 µM
U251 CNS
  TGI: > 75 µM
UACC-257 melanoma
  TGI: > 75 µM
UACC-62 melanoma
  TGI: 68.6 µM
UO-31 renal
  TGI: 14.4 µM

Reference: PubChem BioAssay (NCI)
